# Measurements as given in patent publication US20260027068A1, “METHODS OF ADM[…]-KETAMINE” (Perception Neuroscience, Inc., priority 2022, published 2026).
# Test system: subjects with TRD
# Test: Adverse events (TEAEs, SAEs) in the TRD study
# Format: in vivo, human
# Conditions: 60 mg (n = 35)
# Description: The definitions of an AE and SAE can be found in Section F. AEs were reported by the subject (or, when appropriate, by a caregiver, surrogate, or the subject's legally authorized representative). The Investigator and any designees were responsible for detecting, documenting, and recording events that meet the definition of an AE or SAE and remained responsible for following up AEs that were serious, considered related to the study treatment or study procedures, or that caused the subject to discontinue from the study.
# All AEs were collected from the signing of the ICF until the second follow-up visit (Day 15) at the time points specified in the Schedule of Activities (Section C). Medical occurrences that began before the start of study treatment but after obtaining informed consent were recorded on the Medical History/Current Medical Conditions section of the CRF, not the AE section. All SAEs were recorded and reported to the Sponsor or designee within 24 hours as indicated in Section F. The Investigator submitted any updated SAE data to the Sponsor or designee within 24 hours of it being available. Investigators were not obligated to actively seek AE or SAE information after the conclusion of study participation. However, if the Investigator learns of any SAE, including a death, at any time after a subject has been discharged from the study, and he/she considers the event to be reasonably related to the study treatment or study participation, the Investigator must promptly notify the Sponsor or designee. The method of recording, evaluating, and assessing the causality of AEs and SAEs and the procedures for completing and transmitting SAE reports are provided in Section F.
# An AE is any untoward medical occurrence in a patient or subject, temporally associated with the use of study treatment, whether or not considered related to the study treatment. An AE can therefore be any unfavorable and unintended sign (including an abnormal laboratory finding), symptom, or disease (new or exacerbated) temporally associated with the use of study treatment.
# If an event is not an AE per the definition above, then it cannot be an SAE even if serious conditions are met (e.g., hospitalization for signs/symptoms of the disease under study). A Serious Adverse Event (SAE) is defined as any untoward medical occurrence that, at any dose: a) results in death; b) is life-threatening; c) requires inpatient hospitalization or prolongation of existing hospitalization; d) results in persistent disability/incapacity; or e) is a congenital anomaly/birth defect. The term “life-threatening” in the definition of “serious” refers to an event in which the subject was at risk of death at the time of the event. […] In general, hospitalization signifies that the subject has been detained (usually involving at least an overnight stay) at the hospital or emergency ward for observation and/or treatment that would not have been appropriate in the physician's office or outpatient setting. Complications that occur during hospitalization are AEs. If a complication prolongs hospitalization or fulfills any other serious criteria, the event is serious. When in doubt as to whether “hospitalization” occurred or was necessary, the AE should be considered serious. […] The term disability means a substantial disruption of a person's ability to conduct normal life functions.
# (MedDRA; Version 23.0 or higher). Treatment-emergent adverse events (TEAEs) are AEs with onset or worsening after the start of study treatment. The AE summaries will be primarily based on TEAEs. The number and percentage of subjects with TEAEs will be summarized by treatment group, system organ class, and preferred term for all TEAEs, treatment-related TEAEs, SAEs, serious TEAEs, severe TEAEs, TEAEs of special interest, and all TEAEs leading to study drug discontinuation. All TEAEs will be further summarized by maximum severity and causality. The TEAEs of special interest will be identified in the SAP. […]
smiles,measurement,value
CN[C@@]1(c2ccccc2Cl)CCCCC1=O [PCN 101],Number of subjects with any treatment-emergent adverse events,18
same,Number of treatment-emergent adverse events,53
same,Subjects with any treatment-emergent adverse events: (%) of subjects,(51)
same,TEAE PT Alopecia: (%) of subjects,(3)
same,TEAE PT Alopecia: number of subjects,1
same,TEAE PT Aversion: (%) of subjects,(0)
same,TEAE PT Aversion: number of subjects,0
same,TEAE PT Balance disorder: (%) of subjects,(0)
same,TEAE PT Balance disorder: number of subjects,0
same,TEAE PT Blood pressure increased: (%) of subjects,(3)
same,TEAE PT Blood pressure increased: number of subjects,1
same,TEAE PT Bruxism: (%) of subjects,(0)
same,TEAE PT Bruxism: number of subjects,0
same,TEAE PT Confusional state: (%) of subjects,(3)
same,TEAE PT Confusional state: number of subjects,1
same,TEAE PT Defect conduction intraventricular: (%) of subjects,(3)
same,TEAE PT Defect conduction intraventricular: number of subjects,1
same,TEAE PT Derealisation: (%) of subjects,(9)
same,TEAE PT Derealisation: number of subjects,3
same,TEAE PT Diarrhoea: (%) of subjects,(0)
same,TEAE PT Diarrhoea: number of subjects,0
same,TEAE PT Dissociation: (%) of subjects,(0)
same,TEAE PT Dissociation: number of subjects,0
same,TEAE PT Dizziness: (%) of subjects,(20)
same,TEAE PT Dizziness: number of subjects,7
same,TEAE PT Dry mouth: (%) of subjects,(3)
same,TEAE PT Dry mouth: number of subjects,1
same,TEAE PT Dysarthria: (%) of subjects,(6)
same,TEAE PT Dysarthria: number of subjects,2
same,TEAE PT Dyspnoea exertional: (%) of subjects,(0)
same,TEAE PT Dyspnoea exertional: number of subjects,0
same,TEAE PT Energy increased: (%) of subjects,(3)
same,TEAE PT Energy increased: number of subjects,1
same,TEAE PT Euphoric mood: (%) of subjects,(3)
same,TEAE PT Euphoric mood: number of subjects,1
same,TEAE PT Fatigue: (%) of subjects,(3)
same,TEAE PT Fatigue: number of subjects,1
same,TEAE PT Feeling abnormal: (%) of subjects,(3)
same,TEAE PT Feeling abnormal: number of subjects,1
same,TEAE PT Feeling drunk: (%) of subjects,(6)
same,TEAE PT Feeling drunk: number of subjects,2
same,TEAE PT Haematuria: (%) of subjects,(0)
same,TEAE PT Haematuria: number of subjects,0
same,TEAE PT Headache: (%) of subjects,(6)
same,TEAE PT Headache: number of subjects,2
same,TEAE PT Hyperacusis: (%) of subjects,(0)
same,TEAE PT Hyperacusis: number of subjects,0
same,TEAE PT Hyperhidrosis: (%) of subjects,(0)
same,TEAE PT Hyperhidrosis: number of subjects,0
same,TEAE PT Hyperphagia: (%) of subjects,(3)
same,TEAE PT Hyperphagia: number of subjects,1
same,TEAE PT Hypoaesthesia oral: (%) of subjects,(3)
same,TEAE PT Hypoaesthesia oral: number of subjects,1
same,TEAE PT Hypoaesthesia: (%) of subjects,(0)
same,TEAE PT Hypoaesthesia: number of subjects,0
same,TEAE PT Increased appetite: (%) of subjects,(3)
same,TEAE PT Increased appetite: number of subjects,1
same,TEAE PT Influenza like illness: (%) of subjects,(0)
same,TEAE PT Influenza like illness: number of subjects,0
same,TEAE PT Infusion site hypoaesthesia: (%) of subjects,(3)
same,TEAE PT Infusion site hypoaesthesia: number of subjects,1
same,TEAE PT Left ventricular hypertrophy: (%) of subjects,(3)
same,TEAE PT Left ventricular hypertrophy: number of subjects,1
same,TEAE PT Lethargy: (%) of subjects,(3)
same,TEAE PT Lethargy: number of subjects,1
same,TEAE PT Limb discomfort: (%) of subjects,(0)
same,TEAE PT Limb discomfort: number of subjects,0
same,TEAE PT Logorrhoea: (%) of subjects,(0)
same,TEAE PT Logorrhoea: number of subjects,0
same,TEAE PT Memory impairment: (%) of subjects,(0)
same,TEAE PT Memory impairment: number of subjects,0
same,TEAE PT Muscle strain: (%) of subjects,(0)
same,TEAE PT Muscle strain: number of subjects,0
same,TEAE PT Muscular weakness: (%) of subjects,(3)
same,TEAE PT Muscular weakness: number of subjects,1
same,TEAE PT Nausea: (%) of subjects,(9)
same,TEAE PT Nausea: number of subjects,3
same,TEAE PT Paraesthesia: (%) of subjects,(6)
same,TEAE PT Paraesthesia: number of subjects,2
same,TEAE PT Rhinorrhoea: (%) of subjects,(0)
same,TEAE PT Rhinorrhoea: number of subjects,0
same,TEAE PT Sedation: (%) of subjects,(3)
same,TEAE PT Sedation: number of subjects,1
same,TEAE PT Sensory disturbance: (%) of subjects,(0)
same,TEAE PT Sensory disturbance: number of subjects,0
same,TEAE PT Sinusitis: (%) of subjects,(0)
same,TEAE PT Sinusitis: number of subjects,0
same,TEAE PT Skin abrasion: (%) of subjects,(3)
same,TEAE PT Skin abrasion: number of subjects,1
same,TEAE PT Slow speech: (%) of subjects,0)
same,TEAE PT Slow speech: number of subjects,0
same,TEAE PT Smoke sensitivity: (%) of subjects,(3)
same,TEAE PT Smoke sensitivity: number of subjects,1
same,TEAE PT Somnolence: (%) of subjects,(11)
same,TEAE PT Somnolence: number of subjects,4
same,TEAE PT Tachycardia: (%) of subjects,(0)
same,TEAE PT Tachycardia: number of subjects,0
same,TEAE PT Throat tightness: (%) of subjects,(3)
same,TEAE PT Throat tightness: number of subjects,1
same,TEAE PT Time perception altered: (%) of subjects,(3)
same,TEAE PT Time perception altered: number of subjects,1
same,TEAE PT Urinary tract infection: (%) of subjects,(0)
same,TEAE PT Urinary tract infection: number of subjects,0
same,TEAE PT Venous injury: (%) of subjects,(0)
same,TEAE PT Venous injury: number of subjects,0
same,TEAE PT Vertigo: (%) of subjects,(0)
same,TEAE PT Vertigo: number of subjects,0
same,TEAE PT Vessel puncture site erythema: (%) of subjects,(0)
same,TEAE PT Vessel puncture site erythema: number of subjects,0
same,TEAE PT Vision blurred: (%) of subjects,(3)
same,TEAE PT Vision blurred: number of subjects,1
same,TEAE PT Visual impairment: (%) of subjects,(0)
same,TEAE PT Visual impairment: number of subjects,0
same,TEAE SOC Cardiac disorders: (%) of subjects,(6)
same,TEAE SOC Cardiac disorders: number of subjects,2
same,TEAE SOC Ear and labyrinth disorders: (%) of subjects,(0)
same,TEAE SOC Ear and labyrinth disorders: number of subjects,0
same,TEAE SOC Eye disorders: (%) of subjects,(3)
same,TEAE SOC Eye disorders: number of subjects,1
same,TEAE SOC Gastrointestinal disorders: (%) of subjects,(14)
same,TEAE SOC Gastrointestinal disorders: number of subjects,5
same,TEAE SOC General disorders and administration site conditions: (%) of subjects,(11)
same,TEAE SOC General disorders and administration site conditions: number of subjects,4
same,TEAE SOC Immune system disorders: (%) of subjects,(3)
same,TEAE SOC Immune system disorders: number of subjects,1
same,TEAE SOC Infections and infestations: (%) of subjects,(0)
same,TEAE SOC Infections and infestations: number of subjects,0
same,"TEAE SOC Injury, poisoning and procedural complications: (%) of subjects",(3)
same,"TEAE SOC Injury, poisoning and procedural complications: number of subjects",1
same,TEAE SOC Investigations: (%) of subjects,(3)
same,TEAE SOC Investigations: number of subjects,1
same,TEAE SOC Metabolism and nutrition disorders: (%) of subjects,(3)
same,TEAE SOC Metabolism and nutrition disorders: number of subjects,1
same,TEAE SOC Musculoskeletal and connective tissue disorders: (%) of subjects,(3)
same,TEAE SOC Musculoskeletal and connective tissue disorders: number of subjects,1
same,TEAE SOC Nervous system disorders: (%) of subjects,(40)
same,TEAE SOC Nervous system disorders: number of subjects,14
same,TEAE SOC Psychiatric disorders: (%) of subjects,(14)
same,TEAE SOC Psychiatric disorders: number of subjects,5
same,TEAE SOC Renal and urinary disorders: (%) of subjects,(0)
same,TEAE SOC Renal and urinary disorders: number of subjects,0
same,"TEAE SOC Respiratory, thoracic and mediastinal disorders: (%) of subjects",(3)
same,"TEAE SOC Respiratory, thoracic and mediastinal disorders: number of subjects",1
same,TEAE SOC Skin and subcutaneous tissue disorders: (%) of subjects,(3)
same,TEAE SOC Skin and subcutaneous tissue disorders: number of subjects,1
